From ChEMBL document CHEMBL1145312, “Structure-activity relationships of triazolopyridine oxazole p38 inhibitors: identification of candidates for clinical development” (Bioorg Med Chem Lett, 2006) come the findings set out here.

As usually defined, the IC50 is the concentration needed to halve the response being measured. Higher therefore signals weaker potency.

Data set [1] can be described thus: Hepatocyte microsomal extraction ratio in human. The settings on record: hepatic microsomes.
Another data set is filed under the species Homo sapiens. Briefly: Inhibition of LPS-induced TNFalpha production in human whole blood. The format is functional, organism-based.
Another data set has as its system Monocyte. Briefly: Inhibition of LPS-induced TNFalpha production in human monocytes. The format is functional, cell-based.
In data set [2] the target is Mitogen-activated protein kinase 14 (Homo sapiens, UniProt Q16539). Briefly: Inhibition of p38alpha.
The nature of data set [3]: Hepatocyte extraction ratio in human. In kind it is ADME, cell-based. Conditions: hepatocytes.

Sequence of Mitogen-activated protein kinase 14 (Q16539 whole entry): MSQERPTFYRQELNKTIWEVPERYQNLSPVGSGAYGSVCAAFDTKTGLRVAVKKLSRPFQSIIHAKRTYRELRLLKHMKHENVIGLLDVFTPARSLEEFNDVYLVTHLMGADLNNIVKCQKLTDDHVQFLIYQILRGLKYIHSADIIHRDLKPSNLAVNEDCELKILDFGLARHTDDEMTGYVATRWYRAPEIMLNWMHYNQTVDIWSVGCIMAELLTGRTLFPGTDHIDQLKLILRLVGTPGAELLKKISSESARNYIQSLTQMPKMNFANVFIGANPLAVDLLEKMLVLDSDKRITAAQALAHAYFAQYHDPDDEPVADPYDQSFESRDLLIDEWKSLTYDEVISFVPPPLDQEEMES

Turning to `CC(C)c1nnc2ccc(-c3ocnc3-c3c(F)cc(F)cc3F)cn12`, the hepatic extraction ratio in data set [1] is less than 0.3. Besides, the IC50 is 650 nM in the data set listed under Homo sapiens, 60 nM in the data set on Monocyte and 7.2 nM in data set [2].

`CC(C)c1nnc2ccc(-c3ocnc3-c3ccc(Cl)c(Cl)c3)cn12`: the IC50 is 148 nM in the data set on Monocyte and 26.4 nM in data set [2].

For `CC(C)c1nnc2ccc(-c3ocnc3-c3ccc(Cl)cc3Cl)cn12`, the hepatic extraction ratio in data set [1] was less than 0.3. In addition, the values for the IC50 (in the data set with Monocyte; in data set [2]) were 30 nM and 8.3 nM, respectively.

With `Fc1ccc(-c2ncoc2-c2ccc3nnc(C4CCC4)n3c2)cc1`, the hepatic extraction ratio in data set [3] is more than 0.5. For the same compound, the IC50 was found to be 49 nM in the data set with Monocyte and 17.7 nM in data set [2].

In the case of `CCNc1nnc2ccc(-c3ocnc3-c3ccccc3)cn12`, the concentration for half-maximal inhibition (IC50) worked out at 1710 nM in the data set filed under Homo sapiens, 40 nM in the data set with Monocyte and 5.4 nM in data set [2]. In data set [3], the hepatic extraction ratio is more than 0.5.

Consider `CCN(C)c1nnc2ccc(-c3ocnc3-c3ccc(F)cc3)cn12`, for which the results for the 50% inhibitory concentration (IC50) (in the data set listed under Homo sapiens; in the data set on Monocyte; in data set [2]) were 1550 nM, 34.6 nM and 4.7 nM, respectively.

Take `CC(C)c1nnc2ccc(-c3ocnc3-c3c(F)cccc3F)cn12`: in data set [1], the hepatic extraction ratio was less than 0.3. In addition, the results for the IC50 (with Monocyte; in data set [2]) were 71.1 nM and 14.6 nM, respectively.

Regarding `CC(C)c1nnc2ccc(-c3ocnc3-c3cc(Cl)ccc3F)cn12`, the half-maximal inhibitory concentration (IC50) in the data set listed under Homo sapiens came out at 190 nM; with Monocyte it was 10 nM; in data set [2] it was 5.1 nM.

Take `CC(C)c1nnc2ccc(-c3ocnc3-c3ccccc3Cl)cn12`: the IC50 in the data set filed under Homo sapiens came out at 937 nM; in the data set on Monocyte, 57.4 nM; in data set [2], 3 nM.

As for `Fc1cc(F)c(-c2ncoc2-c2ccc3nnc(C4CC4)n3c2)cc1F`, the hepatic extraction ratio in data set [1] was less than 0.3. The IC50 came out at 565 nM in the data set listed under Homo sapiens, 40 nM with Monocyte and 7.8 nM in data set [2].

With `CC(C)Cc1nnc2ccc(-c3ocnc3-c3ccc(F)cc3)cn12`, the IC50 in the data set with Monocyte stood at 70 nM; in data set [2], 8.8 nM.

Regarding `CC(C)(C)c1nnc2ccc(-c3ocnc3-c3cc(F)ccc3F)cn12`, the hepatic extraction ratio in data set [1] is less than 0.3. The IC50 stood at 220 nM in the data set filed under Homo sapiens, 14.1 nM with Monocyte and 8.8 nM in data set [2].

Turning to `FC(F)(F)Cc1nnc2ccc(-c3ocnc3-c3ccccc3)cn12`, in data set [3], the hepatic extraction ratio was more than 0.5. Besides, the half-maximal inhibitory concentration (IC50) in the data set with Monocyte came to 915 nM; in data set [2] it was 83.2 nM.

Take `CC(C)Nc1nnc2ccc(-c3ocnc3-c3ccc(F)cc3)cn12`: the 50% inhibitory concentration (IC50) in the data set on Monocyte was 31.6 nM; in data set [2], 5.5 nM.

For `Fc1ccc(-c2ncoc2-c2ccc3nnc(C4CC4)n3c2)c(F)c1`, the IC50 in the data set listed under Homo sapiens turned out to be 910 nM; in the data set with Monocyte it was 45.8 nM; in data set [2] it was 3.5 nM.

For `Fc1ccc(-c2ncoc2-c2ccc3nnc(N4CCOCC4)n3c2)cc1`, the hepatic extraction ratio in data set [1] was less than 0.3. The half-inhibitory concentration (IC50) amounted to 1440 nM with Monocyte and 11.8 nM in data set [2].

Regarding `FC(F)c1nnc2ccc(-c3ocnc3-c3ccccc3)cn12`, in data set [2], the IC50 is 544 nM.

As for `CC1(c2nnc3ccc(-c4ocnc4-c4cc(F)c(F)cc4F)cn23)CCC1`, the IC50 amounted to 90 nM in the data set filed under Homo sapiens, 10 nM in the data set with Monocyte and 2.5 nM in data set [2].

As to `Cc1ccc(F)c(-c2ncoc2-c2ccc3nnc(C(C)C)n3c2)c1`, the hepatic extraction ratio in data set [3] was more than 0.5. The IC50 in the data set on Monocyte came to 10 nM; in data set [2] it was 4.3 nM.

Regarding `CC(C)c1nnc2ccc(-c3ocnc3-c3cc(F)c(F)c(F)c3)cn12`, in data set [1], the hepatic extraction ratio is less than 0.3. In addition, the values for the IC50 (with Monocyte; in data set [2]) were 480 nM and 4.1 nM, respectively.

Consider `CC(C)Oc1nnc2ccc(-c3ocnc3-c3ccc(F)cc3)cn12`, for which the IC50 in the data set with Monocyte turned out to be 470 nM; in data set [2], 17.9 nM.

In the case of `c1ccc(-c2ncoc2-c2ccc3nnc(-c4ccno4)n3c2)cc1`, the half-maximal inhibitory concentration (IC50) is more than 2000 nM in the data set with Monocyte and 285 nM in data set [2].

Regarding `CCc1nnc2ccc(-c3ocnc3-c3ccc(F)cc3)cn12`, the half-inhibitory concentration (IC50) was found to be 630 nM with Monocyte and 21.6 nM in data set [2].

Turning to `CC(C)c1nnc2ccc(-c3ocnc3-c3cc(F)c(F)cc3Cl)cn12`, in data set [1], the hepatic extraction ratio was less than 0.3. The IC50 in the data set with Monocyte was found to be 54.8 nM; in data set [2], 5.6 nM.

Regarding `Fc1ccc(F)c(-c2ncoc2-c2ccc3nnc(C4CC4)n3c2)c1`, the hepatic extraction ratio in data set [1] was less than 0.3. The IC50 in the data set listed under Homo sapiens was 1400 nM; in the data set on Monocyte, 31.6 nM; in data set [2], 24 nM.

Consider `Fc1ccc(F)c(-c2ncoc2-c2ccc3nnc(C4CCC4)n3c2)c1`, for which the IC50 in the data set on Monocyte came out at 60 nM; in data set [2], 9.7 nM.

Turning to `CCc1nnc2ccc(-c3ocnc3-c3ccccc3)cn12`, in data set [3], the hepatic extraction ratio was more than 0.5. Moreover, the values for the IC50 (with Monocyte; in data set [2]) were 672 nM and 54.5 nM, respectively.

In the case of `Cc1cc(-c2ncoc2-c2ccc3nnc(C(C)C)n3c2)ccc1F`, the IC50 came out at 260 nM in the data set listed under Homo sapiens, 11.6 nM in the data set on Monocyte and 6.6 nM in data set [2]. Moreover, in data set [3], the hepatic extraction ratio was more than 0.5.

On to `CC1(c2nnc3ccc(-c4ocnc4-c4cc(F)c(F)cc4F)cn23)CC1`, for which, in data set [1], the hepatic extraction ratio was less than 0.3. For the same compound, the IC50 in the data set listed under Homo sapiens was 263 nM; in the data set on Monocyte, 28.3 nM; in data set [2], 2.3 nM.

Consider `Fc1ccc(-c2ncoc2-c2ccc3nnc(Cc4ccccc4)n3c2)cc1`, for which the IC50 with Monocyte was more than 1000 nM; in data set [2], 19.9 nM.

For the compound `CC1(c2nnc3ccc(-c4ocnc4-c4cc(F)ccc4F)cn23)CC1`, the hepatic extraction ratio in data set [1] was less than 0.3. Further, the figures for the IC50 (in the data set listed under Homo sapiens; in the data set on Monocyte; in data set [2]) were 385 nM, 45.8 nM and 3 nM, respectively.

For `c1ccc(-c2ncoc2-c2ccc3nnc(C4CCC4)n3c2)cc1`, the results for the IC50 (with Monocyte; in data set [2]) were 69.3 nM and 16.6 nM, respectively.

With `CC(C)(O)c1nnc2ccc(-c3ocnc3-c3cc(F)ccc3F)cn12`, the IC50 in the data set filed under Homo sapiens is 1400 nM; in the data set with Monocyte, 200 nM; in data set [2] it was 25 nM.

With `Fc1cc(F)c(-c2ncoc2-c2ccc3nnc(C4CCC4)n3c2)cc1F`, the IC50 in the data set listed under Homo sapiens stood at 353 nM; in the data set with Monocyte it was 50 nM; in data set [2], 9.1 nM.

For the compound `CCN(C)c1nnc2ccc(-c3ocnc3-c3ccccc3)cn12`, the hepatic extraction ratio in data set [3] is more than 0.5. For the same compound, the half-inhibitory concentration (IC50) with Monocyte is 80 nM; in data set [2] it was 9.2 nM.

On to `Cc1cccc(-c2ncoc2-c2ccc3nnc(C(C)C)n3c2)c1`, for which the figures for the 50% inhibitory concentration (IC50) (in the data set on Monocyte; in data set [2]) were 24.5 nM and 18.3 nM, respectively.

As for `CC(C)c1nnc2ccc(-c3ocnc3-c3ccc(Cl)cc3)cn12`, the concentration for half-maximal inhibition (IC50) came out at 70 nM in the data set on Monocyte and 17.7 nM in data set [2].

For the compound `CC(C)c1nnc2ccc(-c3ocnc3-c3cccc(Cl)c3Cl)cn12`, the hepatic extraction ratio in data set [1] was less than 0.3. In addition, the concentration for half-maximal inhibition (IC50) with Monocyte was 57.4 nM; in data set [2], 14.5 nM.

In the case of `CC(C)c1nnc2ccc(-c3ocnc3-c3ccc(F)c(F)c3)cn12`, the 50% inhibitory concentration (IC50) in the data set with Monocyte came out at 49 nM; in data set [2], 22.3 nM.

On to `COc1ccccc1-c1nnc2ccc(-c3ocnc3-c3ccc(F)cc3)cn12`, for which the IC50 in the data set listed under Homo sapiens came to 873 nM; with Monocyte, 10 nM; in data set [2], 0.4 nM.

In the case of `CC(C)c1nnc2ccc(-c3ocnc3-c3cc(F)c(Cl)cc3F)cn12`, the hepatic extraction ratio in data set [1] was less than 0.3. Moreover, the values for the IC50 (in the data set with Monocyte; in data set [2]) were 60 nM and 24.5 nM, respectively.

As to `CCCNc1nnc2ccc(-c3ocnc3-c3ccc(F)cc3)cn12`, in data set [2], the IC50 turned out to be 198 nM.

As to `CC(C)c1nnc2ccc(-c3ocnc3-c3cc(F)cc(F)c3F)cn12`, in data set [1], the hepatic extraction ratio was less than 0.3. The figures for the IC50 (in the data set with Monocyte; in data set [2]) were 490 nM and 83.3 nM, respectively.

On to `Fc1ccc(-c2ncoc2-c2ccc3nnc(C4CCC4)n3c2)c(F)c1`, for which the hepatic extraction ratio in data set [3] is more than 0.5. Moreover, the IC50 is 40 nM with Monocyte and 3.75 nM in data set [2].

On to `CC(C)(C)c1nnc2ccc(-c3ocnc3-c3ccc(F)cc3)cn12`, for which the hepatic extraction ratio in data set [1] is less than 0.3. Further, the half-inhibitory concentration (IC50) in the data set filed under Homo sapiens is 470 nM; in the data set with Monocyte it was 38.7 nM; in data set [2], 3.5 nM.

With `CC(C)c1nnc2ccc(-c3ocnc3-c3ccc(F)cc3F)cn12`, the IC50 in the data set filed under Homo sapiens is 265 nM; in the data set with Monocyte, 10 nM; in data set [2], 4.6 nM. The hepatic extraction ratio in data set [3] was more than 0.5.

`CC(C)c1nnc2ccc(-c3ocnc3-c3cccc(F)c3)cn12`: the hepatic extraction ratio in data set [3] was more than 0.5. The half-maximal inhibitory concentration (IC50) in the data set with Monocyte turned out to be 135 nM; in data set [2], 37.8 nM.

As to `CC1(c2nnc3ccc(-c4ocnc4-c4ccc(F)cc4F)cn23)CCC1`, the IC50 in the data set listed under Homo sapiens came out at 77 nM; in the data set with Monocyte, 10 nM; in data set [2] it was 1.1 nM.

Turning to `CC(C)c1nnc2ccc(-c3ocnc3-c3ccc(Cl)c(F)c3)cn12`, the results for the 50% inhibitory concentration (IC50) (in the data set on Monocyte; in data set [2]) were 266 nM and 43.2 nM, respectively.

Take `CCOc1nnc2ccc(-c3ocnc3-c3ccc(F)cc3)cn12`: the IC50 in the data set with Monocyte turned out to be 360 nM; in data set [2], 55.5 nM.

Consider `CC(C)c1nnc2ccc(-c3ocnc3-c3ccc(F)c(F)c3F)cn12`, for which the IC50 worked out at 57.4 nM with Monocyte and 11.1 nM in data set [2].

`CC1(c2nnc3ccc(-c4ocnc4-c4ccc(F)cc4)cn23)CCC1`: the hepatic extraction ratio in data set [3] was more than 0.5. Moreover, the figures for the IC50 (in the data set on Monocyte; in data set [2]) were 40 nM and 14 nM, respectively.

For the compound `Fc1ccc(-c2ncoc2-c2ccc3nncn3c2)cc1`, the hepatic extraction ratio in data set [1] is less than 0.3. For the same compound, the IC50 in the data set on Monocyte was more than 5000 nM; in data set [2], 19.5 nM.

Regarding `Fc1ccc(-c2ncoc2-c2ccc3nnc(N4CCCC4)n3c2)cc1`, the concentration for half-maximal inhibition (IC50) in the data set filed under Homo sapiens stood at 935 nM; in the data set with Monocyte it was 52 nM; in data set [2], 15.4 nM. The hepatic extraction ratio in data set [3] was more than 0.5.

As for `c1ccc(-c2ncoc2-c2ccc3nnc(C4CC4)n3c2)cc1`, the hepatic extraction ratio in data set [3] is more than 0.5. In addition, the half-inhibitory concentration (IC50) was found to be 150 nM with Monocyte and 47.2 nM in data set [2].

Turning to `CN(C)c1nnc2ccc(-c3ocnc3-c3ccc(F)cc3)cn12`, the hepatic extraction ratio in data set [3] is more than 0.5. Also, the results for the IC50 (with Monocyte; in data set [2]) were 165 nM and 15.3 nM, respectively.

Turning to `CC1(c2nnc3ccc(-c4ocnc4-c4cc(F)ccc4F)cn23)CCC1`, the IC50 in the data set with Monocyte turned out to be 10 nM; in data set [2], 1.5 nM.

Regarding `CC(C)c1nnc2ccc(-c3ocnc3-c3ccc(F)c(Br)c3)cn12`, the hepatic extraction ratio in data set [1] is less than 0.3. For the same compound, the half-inhibitory concentration (IC50) in the data set on Monocyte turned out to be 122 nM; in data set [2] it was 8 nM.
